According to patent US12077503B2, “Substituted cyclic amides and their use as herbicides” (FMC CORPORATION, priority 2015, dated 2024):

Tests used:
Type in all cases: in vivo
Kochia (Kochia scoparia) = assay: Test A preemergence; conditions: Bassia scoparia, pre-emergence, 240 h, preemergence, 0 to 100 scale where 0 is no effect and 100 is complete control, read-out: Kochia plant response rating; for pest or weed control at 125 g/ha: 125 g ai/ha, visual injury rating, approximately 10 d; for pest or weed control at 500 g/ha: 500 g ai/ha
Summary of the method: (§1)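 Preemergence directed soil spray on seeded pots, or postemergence application to plants 2–10 cm, one- to two-leaf. Solvent mixture non-phytotoxic, with surfactant. Scored ~10 d later, visually, 0–100 vs untreated.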

[1] = system: barnyardgrass (Echinochloa crus-galli); assay: Test A preemergence; conditions: Echinochloa crus-galli, pre-emergence, 240 h, preemergence, 0 to 100 scale where 0 is no effect and 100 is complete control, read-out: Barnyardgrass plant response rating; for pest or weed control at 125 g/ha: 125 g ai/ha, visual injury rating, approximately 10 d; for pest or weed control at 500 g/ha: 500 g ai/ha
Summary of the method: as §1

[2] = system: pigweed (Amaranthus retroflexus); assay: Test A preemergence; conditions: Amaranthus retroflexus, pre-emergence, 240 h, preemergence, 0 to 100 scale where 0 is no effect and 100 is complete control, read-out: Pigweed plant response rating; for pest or weed control at 125 g/ha: 125 g ai/ha, visual injury rating, approximately 10 d; for pest or weed control at 500 g/ha: 500 g ai/ha
[3] = system: ragweed (common ragweed, Ambrosia elatior); assay: Test A preemergence; conditions: Ambrosia artemisiifolia, pre-emergence, 240 h, preemergence, 0 to 100 scale where 0 is no effect and 100 is complete control, read-out: Ragweed plant response rating; for pest or weed control at 125 g/ha: 125 g ai/ha, visual injury rating, approximately 10 d; for pest or weed control at 500 g/ha: 500 g ai/ha
Summary of the method: as §1

[4] = system: ryegrass, Italian (Italian ryegrass, Lolium multiflorum); assay: Test A preemergence; conditions: Lolium multiflorum, pre-emergence, 240 h, preemergence, 0 to 100 scale where 0 is no effect and 100 is complete control, read-out: Ryegrass, Italian plant response rating; for pest or weed control at 125 g/ha: 125 g ai/ha, visual injury rating, approximately 10 d; for pest or weed control at 500 g/ha: 500 g ai/ha
Summary of the method: as §1

[5] = system: Galium (catchweed bedstraw, Galium aparine); assay: Test A postemergence; conditions: Galium, post-emergence, 240 h, postemergence; for pest or weed control at 125 g/ha: 125 g ai/ha, visual injury vs untreated controls after approx. 10 d, 0 = no effect, 100 = complete control, read-out: Galium plant response rating (0 to 100 scale); for pest or weed control at 500 g/ha: 500 g ai/ha, 0 to 100 scale, 0 is no effect, 100 is complete control, read-out: Galium plant response rating
Summary of the method: as §1

[6] = system: barnyardgrass (Echinochloa crus-galli); assay: Test A postemergence; conditions: Echinochloa crus-galli, post-emergence, 240 h, postemergence; for pest or weed control at 125 g/ha: 125 g ai/ha, visual injury vs untreated controls after approx. 10 d, 0 = no effect, 100 = complete control, read-out: Barnyardgrass plant response rating (0 to 100 scale); for pest or weed control at 500 g/ha: 500 g ai/ha, 0 to 100 scale, 0 is no effect, 100 is complete control, read-out: Barnyardgrass plant response rating
Summary of the method: as §1

[7] = system: blackgrass (Alopecurus myosuroides); assay: Test A postemergence; conditions: Alopecurus myosuroides, post-emergence, 240 h, postemergence; for pest or weed control at 125 g/ha: 125 g ai/ha, visual injury vs untreated controls after approx. 10 d, 0 = no effect, 100 = complete control, read-out: Blackgrass plant response rating (0 to 100 scale); for pest or weed control at 500 g/ha: 500 g ai/ha, 0 to 100 scale, 0 is no effect, 100 is complete control, read-out: Blackgrass plant response rating
Summary of the method: as §1

corn (Zea mays) = assay: Test A postemergence; conditions: Zea mays, post-emergence, 240 h, postemergence; for plant injury at 125 g/ha: 125 g ai/ha, visual injury vs untreated controls after approx. 10 d, 0 = no effect, 100 = complete control, read-out: Corn plant response rating (0 to 100 scale); for plant injury at 500 g/ha: 500 g ai/ha, 0 to 100 scale, 0 is no effect, 100 is complete control, read-out: Corn plant response rating
Summary of the method: as §1

[8] = system: giant foxtail (Setaria faberii); assay: Test A postemergence; conditions: Setaria faberi, post-emergence, 240 h, postemergence; for pest or weed control at 125 g/ha: 125 g ai/ha, visual injury vs untreated controls after approx. 10 d, 0 = no effect, 100 = complete control, read-out: Foxtail, Giant plant response rating (0 to 100 scale); for pest or weed control at 500 g/ha: 500 g ai/ha, 0 to 100 scale, 0 is no effect, 100 is complete control, read-out: Foxtail, Giant plant response rating
Summary of the method: as §1

[9] = system: pigweed (Amaranthus retroflexus); assay: Test A postemergence; conditions: Amaranthus retroflexus, post-emergence, 240 h, postemergence; for pest or weed control at 125 g/ha: 125 g ai/ha, visual injury vs untreated controls after approx. 10 d, 0 = no effect, 100 = complete control, read-out: Pigweed plant response rating (0 to 100 scale); for pest or weed control at 500 g/ha: 500 g ai/ha, 0 to 100 scale, 0 is no effect, 100 is complete control, read-out: Pigweed plant response rating
Summary of the method: as §1

[10] = system: ragweed (common ragweed, Ambrosia elatior); assay: Test A postemergence; conditions: Ambrosia artemisiifolia, post-emergence, 240 h, postemergence; for pest or weed control at 125 g/ha: 125 g ai/ha, visual injury vs untreated controls after approx. 10 d, 0 = no effect, 100 = complete control, read-out: Ragweed plant response rating (0 to 100 scale); for pest or weed control at 500 g/ha: 500 g ai/ha, 0 to 100 scale, 0 is no effect, 100 is complete control, read-out: Ragweed plant response rating
Summary of the method: as §1

[11] = system: ryegrass, Italian (Italian ryegrass, Lolium multiflorum); assay: Test A postemergence; conditions: Lolium multiflorum, post-emergence, 240 h, postemergence; for pest or weed control at 125 g/ha: 125 g ai/ha, visual injury vs untreated controls after approx. 10 d, 0 = no effect, 100 = complete control, read-out: Ryegrass, Italian plant response rating (0 to 100 scale); for pest or weed control at 500 g/ha: 500 g ai/ha, 0 to 100 scale, 0 is no effect, 100 is complete control, read-out: Ryegrass, Italian plant response rating
Summary of the method: as §1

[12] = system: wheat (Triticum aestivum); assay: Test A postemergence; conditions: Triticum aestivum, post-emergence, 240 h, postemergence; for plant injury at 125 g/ha: 125 g ai/ha, visual injury vs untreated controls after approx. 10 d, 0 = no effect, 100 = complete control, read-out: Wheat plant response rating (0 to 100 scale); for plant injury at 500 g/ha: 500 g ai/ha, 0 to 100 scale, 0 is no effect, 100 is complete control, read-out: Wheat plant response rating
Summary of the method: as §1

| Compound | pest or weed control at 125 g/ha (Kochia (Kochia scoparia)) | pest or weed control at 500 g/ha (Kochia (Kochia scoparia)) | pest or weed control at 125 g/ha [1] | pest or weed control at 500 g/ha [1] | pest or weed control at 125 g/ha [2] | pest or weed control at 500 g/ha [2] | pest or weed control at 125 g/ha [3] | pest or weed control at 500 g/ha [3] | pest or weed control at 125 g/ha [4] | pest or weed control at 500 g/ha [4] | pest or weed control at 125 g/ha [5] | pest or weed control at 500 g/ha [5] | pest or weed control at 125 g/ha [6] | pest or weed control at 500 g/ha [6] | pest or weed control at 125 g/ha [7] | pest or weed control at 500 g/ha [7] | plant injury at 125 g/ha (corn (Zea mays)) | plant injury at 500 g/ha (corn (Zea mays)) | pest or weed control at 125 g/ha [8] | pest or weed control at 500 g/ha [8] | other results |
| --- | --- | --- | --- | --- | --- | --- | --- | --- | --- | --- | --- | --- | --- | --- | --- | --- | --- | --- | --- | --- | --- |
| Cc1ccc([C@H]2CCN(C)C(=O)[C@@H]2C(=O)Nc2cccc(F)c2F)cc1 [Compound 1220] | 40% | 50% | 90% | 90% | 20% | 40% | 30% | 40% | 30% | 50% | 30% | 40% | 70% | 80% | 30% | 40% | 30% | 70% | 80% | 80% | pest or weed control at 125 g/ha [9]: 20%; pest or weed control at 500 g/ha [9]: 20%; pest or weed control at 125 g/ha [10]: 20%; pest or weed control at 500 g/ha [10]: 30%; pest or weed control at 125 g/ha [11]: 20%; pest or weed control at 500 g/ha [11]: 30%; plant injury at 125 g/ha [12]: 20%; plant injury at 500 g/ha [12]: 40% |
| CN1CC[C@H](c2ccc(C(F)(F)F)cc2)[C@@H](C(=O)Nc2cccc(F)c2F)C1=O [Compound 1225] | 60% | 70% | 90% | 90% | 30% | 50% | 50% | 60% | 20% | 40% | 50% | 70% | 90% | 90% | 30% | 40% | 30% | 90% | 90% | 90% | pest or weed control at 125 g/ha [9]: 30%; pest or weed control at 500 g/ha [9]: 40%; pest or weed control at 125 g/ha [10]: 40%; pest or weed control at 500 g/ha [10]: 50%; pest or weed control at 125 g/ha [11]: 30%; pest or weed control at 500 g/ha [11]: 30%; plant injury at 125 g/ha [12]: 30%; plant injury at 500 g/ha [12]: 70% |
| CSc1ccccc1NC(=O)[C@H]1C(=O)N(C)C[C@@H]1c1cccc(C)c1 [Compound 1232] | 70% | 80% | 90% | 90% | 70% | 90% | 60% | 80% | 20% | 60% | 20% | 60% | 80% | 80% | 0% | 40% | 0% | 70% | 80% | 90% | pest or weed control at 125 g/ha [9]: 0%; pest or weed control at 500 g/ha [9]: 40%; pest or weed control at 125 g/ha [10]: 0%; pest or weed control at 500 g/ha [10]: 50%; pest or weed control at 125 g/ha [11]: 30%; pest or weed control at 500 g/ha [11]: 60%; plant injury at 125 g/ha [12]: 0% |
